In PMC11345841, “Exploring 2-Sulfonylpyrimidine Warheads as Acrylamide Surrogates for Targeted Covalent Inhibition: A BTK Story” (Journal of Medicinal Chemistry, 2024):
Read-outs that look alike come from different tables or passages of the source.

Columns and labels:
Assay in all cases: KINOMEscan ScanTK
Assay type in all cases: binding
EPHA3 = molecular target: T1, EPHA3 (Homo sapiens, UniProt P29320)
T1 construct: purchased Eurofins DiscoverX KINOMEscan (scanTK)
T1 sequence (P29320 21-983): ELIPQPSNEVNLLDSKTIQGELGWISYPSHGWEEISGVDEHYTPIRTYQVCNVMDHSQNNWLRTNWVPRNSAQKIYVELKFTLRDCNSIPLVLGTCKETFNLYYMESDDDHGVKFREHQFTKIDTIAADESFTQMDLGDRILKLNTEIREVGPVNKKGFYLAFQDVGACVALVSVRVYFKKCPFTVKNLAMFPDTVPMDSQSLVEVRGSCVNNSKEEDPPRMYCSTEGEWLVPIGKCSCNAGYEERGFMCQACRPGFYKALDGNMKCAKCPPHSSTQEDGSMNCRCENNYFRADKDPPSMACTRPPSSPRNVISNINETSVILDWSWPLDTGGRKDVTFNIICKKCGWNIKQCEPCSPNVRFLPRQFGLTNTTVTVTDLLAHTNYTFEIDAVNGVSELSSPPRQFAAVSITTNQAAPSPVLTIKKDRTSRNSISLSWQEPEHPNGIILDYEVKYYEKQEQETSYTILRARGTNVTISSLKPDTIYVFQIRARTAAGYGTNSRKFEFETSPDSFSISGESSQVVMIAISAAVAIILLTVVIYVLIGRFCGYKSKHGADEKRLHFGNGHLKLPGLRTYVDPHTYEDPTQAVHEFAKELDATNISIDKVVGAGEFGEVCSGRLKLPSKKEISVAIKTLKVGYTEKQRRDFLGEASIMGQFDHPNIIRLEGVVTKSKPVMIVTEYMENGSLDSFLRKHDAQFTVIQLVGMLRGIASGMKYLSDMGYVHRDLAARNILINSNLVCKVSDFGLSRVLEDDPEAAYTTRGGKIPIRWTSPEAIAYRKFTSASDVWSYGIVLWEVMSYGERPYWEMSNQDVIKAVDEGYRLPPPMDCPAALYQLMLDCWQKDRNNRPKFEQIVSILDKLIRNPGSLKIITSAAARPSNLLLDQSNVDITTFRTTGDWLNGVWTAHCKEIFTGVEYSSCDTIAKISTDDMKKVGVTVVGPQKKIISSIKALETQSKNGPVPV

PDGFRA = molecular target: T2, PDGFRA (Homo sapiens, UniProt P16234)
T2 construct: purchased Eurofins DiscoverX KINOMEscan (scanTK)
T2 sequence (P16234 24-1089): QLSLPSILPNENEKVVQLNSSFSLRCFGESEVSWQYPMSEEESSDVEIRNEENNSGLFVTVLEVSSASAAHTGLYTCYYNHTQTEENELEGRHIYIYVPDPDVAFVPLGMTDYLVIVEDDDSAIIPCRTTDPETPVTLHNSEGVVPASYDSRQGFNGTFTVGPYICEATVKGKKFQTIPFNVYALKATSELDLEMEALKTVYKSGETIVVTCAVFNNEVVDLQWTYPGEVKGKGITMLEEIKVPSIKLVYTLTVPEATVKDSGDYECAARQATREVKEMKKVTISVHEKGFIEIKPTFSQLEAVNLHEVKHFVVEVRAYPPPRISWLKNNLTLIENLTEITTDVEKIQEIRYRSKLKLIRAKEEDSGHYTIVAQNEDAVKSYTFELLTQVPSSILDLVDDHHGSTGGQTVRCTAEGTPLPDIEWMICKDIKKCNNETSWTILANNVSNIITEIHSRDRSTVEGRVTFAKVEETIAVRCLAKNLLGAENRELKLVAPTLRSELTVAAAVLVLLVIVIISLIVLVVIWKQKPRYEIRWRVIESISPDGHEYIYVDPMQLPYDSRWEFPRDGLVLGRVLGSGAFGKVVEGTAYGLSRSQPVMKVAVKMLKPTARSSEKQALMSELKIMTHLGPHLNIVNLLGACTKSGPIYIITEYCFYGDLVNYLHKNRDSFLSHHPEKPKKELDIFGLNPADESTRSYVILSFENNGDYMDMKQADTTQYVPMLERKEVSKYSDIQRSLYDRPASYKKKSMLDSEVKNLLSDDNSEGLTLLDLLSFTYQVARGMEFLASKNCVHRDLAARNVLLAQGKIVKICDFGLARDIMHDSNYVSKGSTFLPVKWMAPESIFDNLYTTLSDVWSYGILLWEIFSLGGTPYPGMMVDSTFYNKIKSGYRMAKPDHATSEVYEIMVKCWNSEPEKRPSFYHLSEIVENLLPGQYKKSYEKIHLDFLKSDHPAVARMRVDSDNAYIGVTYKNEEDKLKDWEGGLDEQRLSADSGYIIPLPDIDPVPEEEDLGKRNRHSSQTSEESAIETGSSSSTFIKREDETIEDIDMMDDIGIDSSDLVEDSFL

FGFR1 = molecular target: T3, FGFR1 (Homo sapiens, UniProt P11362)
T3 construct: purchased Eurofins DiscoverX KINOMEscan (scanTK)
T3 sequence (P11362 22-822): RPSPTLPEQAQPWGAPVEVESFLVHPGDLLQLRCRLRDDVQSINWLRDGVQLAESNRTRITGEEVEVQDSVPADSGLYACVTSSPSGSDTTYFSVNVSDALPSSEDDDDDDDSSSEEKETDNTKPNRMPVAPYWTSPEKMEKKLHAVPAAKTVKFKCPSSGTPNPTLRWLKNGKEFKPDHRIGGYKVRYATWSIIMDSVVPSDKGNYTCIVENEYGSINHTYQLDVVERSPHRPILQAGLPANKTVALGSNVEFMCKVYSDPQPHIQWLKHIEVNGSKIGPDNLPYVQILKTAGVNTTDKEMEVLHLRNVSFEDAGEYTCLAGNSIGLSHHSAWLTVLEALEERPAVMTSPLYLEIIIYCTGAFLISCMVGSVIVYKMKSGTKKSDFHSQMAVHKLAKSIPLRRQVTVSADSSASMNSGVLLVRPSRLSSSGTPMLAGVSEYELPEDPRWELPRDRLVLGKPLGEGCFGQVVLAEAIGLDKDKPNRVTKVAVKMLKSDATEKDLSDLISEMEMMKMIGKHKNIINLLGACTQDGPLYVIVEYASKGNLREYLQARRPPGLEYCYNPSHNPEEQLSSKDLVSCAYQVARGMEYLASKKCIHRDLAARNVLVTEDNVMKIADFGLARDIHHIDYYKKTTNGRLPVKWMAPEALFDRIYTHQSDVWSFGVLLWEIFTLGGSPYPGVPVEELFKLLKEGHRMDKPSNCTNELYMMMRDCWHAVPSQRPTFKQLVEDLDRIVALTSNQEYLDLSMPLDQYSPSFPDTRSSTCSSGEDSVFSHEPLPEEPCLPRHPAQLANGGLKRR

KIT(L576P) = molecular target: T4, KIT(L576P) (Homo sapiens, UniProt P10721, L576P); details: for difference in %Control versus Ib at 1 µM: read-out: % difference (compound - Ib %Control)
T4 construct: purchased Eurofins DiscoverX KINOMEscan (scanTK)
T4 sequence (P10721 26-976 L576P): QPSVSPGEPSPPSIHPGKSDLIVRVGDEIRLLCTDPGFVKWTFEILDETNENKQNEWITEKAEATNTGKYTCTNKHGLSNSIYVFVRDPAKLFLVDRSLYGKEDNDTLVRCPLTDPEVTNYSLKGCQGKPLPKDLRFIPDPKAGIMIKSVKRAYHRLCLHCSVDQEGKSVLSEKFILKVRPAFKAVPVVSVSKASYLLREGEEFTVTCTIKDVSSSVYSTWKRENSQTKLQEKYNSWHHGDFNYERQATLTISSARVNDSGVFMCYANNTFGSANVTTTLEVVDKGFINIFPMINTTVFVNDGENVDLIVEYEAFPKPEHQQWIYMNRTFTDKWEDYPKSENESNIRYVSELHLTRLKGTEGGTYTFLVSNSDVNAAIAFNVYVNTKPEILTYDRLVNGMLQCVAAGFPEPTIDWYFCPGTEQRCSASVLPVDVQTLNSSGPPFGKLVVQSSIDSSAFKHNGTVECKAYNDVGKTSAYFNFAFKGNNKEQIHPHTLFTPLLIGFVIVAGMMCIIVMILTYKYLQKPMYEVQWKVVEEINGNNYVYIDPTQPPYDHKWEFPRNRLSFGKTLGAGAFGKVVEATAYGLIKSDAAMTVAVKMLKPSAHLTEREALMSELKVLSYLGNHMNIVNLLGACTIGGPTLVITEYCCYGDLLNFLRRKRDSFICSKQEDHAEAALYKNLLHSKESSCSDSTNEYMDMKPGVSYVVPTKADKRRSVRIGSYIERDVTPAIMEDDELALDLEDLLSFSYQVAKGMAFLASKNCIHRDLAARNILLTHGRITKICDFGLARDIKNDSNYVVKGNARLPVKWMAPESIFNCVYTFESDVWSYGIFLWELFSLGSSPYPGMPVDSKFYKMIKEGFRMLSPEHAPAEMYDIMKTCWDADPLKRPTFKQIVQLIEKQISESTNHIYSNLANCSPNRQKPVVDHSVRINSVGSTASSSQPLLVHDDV

FLT3(ITD,F691L) = details: for % difference (compound - Ib %Control) / %Control: @1000nM
FLT3 = molecular target: T5, FLT3 (Homo sapiens, UniProt P36888)
T5 construct: purchased Eurofins DiscoverX KINOMEscan (scanTK)
T5 sequence (P36888 27-993): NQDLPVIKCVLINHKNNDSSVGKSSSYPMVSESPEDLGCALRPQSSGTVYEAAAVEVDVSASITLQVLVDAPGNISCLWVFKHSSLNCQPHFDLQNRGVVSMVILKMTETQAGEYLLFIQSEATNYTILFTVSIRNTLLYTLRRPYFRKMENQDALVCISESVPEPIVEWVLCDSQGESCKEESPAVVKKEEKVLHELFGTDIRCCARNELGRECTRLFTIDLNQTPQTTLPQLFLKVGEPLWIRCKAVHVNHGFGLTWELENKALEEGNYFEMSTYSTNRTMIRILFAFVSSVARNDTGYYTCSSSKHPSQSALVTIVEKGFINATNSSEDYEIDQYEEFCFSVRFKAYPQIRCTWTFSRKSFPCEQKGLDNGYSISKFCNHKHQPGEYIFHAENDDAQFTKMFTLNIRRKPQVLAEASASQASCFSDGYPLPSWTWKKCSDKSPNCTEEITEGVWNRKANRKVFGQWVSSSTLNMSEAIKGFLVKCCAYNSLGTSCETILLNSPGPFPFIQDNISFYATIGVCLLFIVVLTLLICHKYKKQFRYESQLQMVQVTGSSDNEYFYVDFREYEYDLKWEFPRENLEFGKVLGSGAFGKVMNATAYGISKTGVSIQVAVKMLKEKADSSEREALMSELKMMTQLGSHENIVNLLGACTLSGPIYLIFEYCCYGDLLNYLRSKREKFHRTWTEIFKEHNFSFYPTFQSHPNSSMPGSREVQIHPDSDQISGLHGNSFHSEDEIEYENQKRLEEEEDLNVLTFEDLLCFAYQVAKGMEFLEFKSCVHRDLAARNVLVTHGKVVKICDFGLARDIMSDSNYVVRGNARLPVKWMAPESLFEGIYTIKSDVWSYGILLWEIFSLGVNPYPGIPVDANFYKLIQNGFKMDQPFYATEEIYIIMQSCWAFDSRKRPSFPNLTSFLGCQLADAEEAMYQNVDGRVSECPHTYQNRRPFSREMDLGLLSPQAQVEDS

EPHA5 = molecular target: T6, EPHA5 (Homo sapiens, UniProt P54756)
T6 construct: purchased Eurofins DiscoverX KINOMEscan (scanTK)
T6 sequence (P54756 25-1037): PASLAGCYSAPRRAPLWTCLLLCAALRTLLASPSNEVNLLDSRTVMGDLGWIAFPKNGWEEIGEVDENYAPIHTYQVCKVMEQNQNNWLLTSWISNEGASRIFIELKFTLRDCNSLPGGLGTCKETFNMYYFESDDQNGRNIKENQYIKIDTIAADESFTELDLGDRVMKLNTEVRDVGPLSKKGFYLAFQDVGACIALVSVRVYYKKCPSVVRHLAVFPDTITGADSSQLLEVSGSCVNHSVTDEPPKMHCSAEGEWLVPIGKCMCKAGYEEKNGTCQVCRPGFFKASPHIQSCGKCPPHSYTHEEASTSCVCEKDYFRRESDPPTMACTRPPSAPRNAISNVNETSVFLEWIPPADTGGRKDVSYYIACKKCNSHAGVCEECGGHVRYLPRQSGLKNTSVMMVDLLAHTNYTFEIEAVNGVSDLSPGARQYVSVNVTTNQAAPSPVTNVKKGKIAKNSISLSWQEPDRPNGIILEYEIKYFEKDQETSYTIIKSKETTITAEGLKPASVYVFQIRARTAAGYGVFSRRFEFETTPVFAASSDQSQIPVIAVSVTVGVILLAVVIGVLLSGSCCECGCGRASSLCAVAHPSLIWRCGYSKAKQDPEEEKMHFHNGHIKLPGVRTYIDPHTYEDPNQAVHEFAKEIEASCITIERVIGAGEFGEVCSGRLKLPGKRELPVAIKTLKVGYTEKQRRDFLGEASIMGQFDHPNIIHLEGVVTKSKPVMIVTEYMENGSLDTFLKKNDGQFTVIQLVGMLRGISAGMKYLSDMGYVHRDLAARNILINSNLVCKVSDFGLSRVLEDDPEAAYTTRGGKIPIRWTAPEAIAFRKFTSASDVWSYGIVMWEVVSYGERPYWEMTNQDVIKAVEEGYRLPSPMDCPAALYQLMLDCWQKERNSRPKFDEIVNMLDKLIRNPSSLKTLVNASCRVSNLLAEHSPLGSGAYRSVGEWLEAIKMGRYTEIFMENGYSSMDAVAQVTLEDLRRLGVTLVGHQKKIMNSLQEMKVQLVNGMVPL

| Structure (SMILES) | difference in % of control versus compound Ib at 1 µM (EPHA3; @1000nM) | remaining binding at 1 µM (EPHA3; @1000nM, read-out: %Control) | remaining binding at 1 µM (EPHA3; read-out: %Control @1000nM) | remaining binding at 1 µM (PDGFRA; @1000nM, read-out: %Control) | remaining binding at 1 µM (PDGFRA; read-out: %Control @1000nM) | difference in %Control from compound Ib at 1 µM (FGFR1; @1000nM) | remaining binding at 1 µM (FGFR1; @1000nM, read-out: %Control) | remaining binding at 1 µM (FGFR1; read-out: %Control @1000nM) | difference in %Control versus Ib at 1 µM (KIT(L576P); @1000nM) | remaining binding at 1 µM (KIT(L576P); @1000nM, read-out: %Control) | remaining binding at 1 µM (KIT(L576P); read-out: %Control @1000nM) | difference in %Control from compound Ib at 1 µM (FLT3; @1000nM) | remaining binding at 1 µM (FLT3; @1000nM, read-out: %Control) | remaining binding at 1 µM (FLT3; read-out: %Control @1000nM) | difference in %Control from compound Ib at 1 µM (EPHA5; @1000nM) | remaining binding at 1 µM (EPHA5; @1000nM, read-out: %Control) | remaining binding at 1 µM (EPHA5; read-out: %Control @1000nM) | %Control @1000nM (FLT3(ITD,F691L)) | % difference (compound - Ib %Control) (FLT3(ITD,F691L)) | %Control (FLT3(ITD,F691L)) |
| --- | --- | --- | --- | --- | --- | --- | --- | --- | --- | --- | --- | --- | --- | --- | --- | --- | --- | --- | --- | --- |
| CCOC(=O)c1cnc(S(C)(=O)=O)nc1N1CCC[C@@H](n2nc(-c3ccc(Oc4ccccc4)cc3)c3c(N)ncnc32)C1 [Compound 8c, Ethyl (R)-4-(3-(4-Amino-3-(4-phenoxyphenyl)-1H-pyrazolo[3,4-d]pyrimidin-1-yl)piperidin-1-yl)-2-(methylsulfonyl)pyrimidine-5-carboxylate] | 1% | 77% | 77% | 91% | 91% | 53% | 86% | 86% | 32% | 64% | 64% | 60% | 93% | 93% | 4% | 100% | 100% | 100% | 0% | 100% |
| C=CC(=O)N1CCC[C@@H](n2nc(-c3ccc(Oc4ccccc4)cc3)c3c(N)ncnc32)C1 [Compound 1g, Ibrutinib, reference compound] | – | 76% | 76% | 49% | 49% | – | 33% | 33% | – | 32% | 32% | – | 33% | 33% | – | 96% | 96% | 100% | – | 100% |
| CNC(=O)c1cnc(S(C)(=O)=O)nc1N1CCCC(n2nc(-c3ccc(Oc4ccccc4)cc3)c3c(N)ncnc32)C1 (stereo not shown) [Compound 8d, 4-(3-(4-Amino-3-(4-phenoxyphenyl)-1H-pyrazolo[3,4-d]pyrimidin-1-yl)piperidin-1-yl)-N-methyl-2-(methylsulfonyl)pyrimidine-5-carboxamide] | 8% | 84% | 84% | 78% | 78% | 45% | 78% | 78% | 13% | 45% | 45% | 32% | 65% | 65% | 4% | 100% | 100% | 100% | 0% | 100% |

Second part, led by results:

| difference in % of control versus compound Ib at 1 µM (EPHA3; @1000nM) | remaining binding at 1 µM (EPHA3; @1000nM, read-out: %Control) | remaining binding at 1 µM (EPHA3; read-out: %Control @1000nM) | remaining binding at 1 µM (PDGFRA; @1000nM, read-out: %Control) | remaining binding at 1 µM (PDGFRA; read-out: %Control @1000nM) | difference in %Control from compound Ib at 1 µM (FGFR1; @1000nM) | remaining binding at 1 µM (FGFR1; @1000nM, read-out: %Control) | remaining binding at 1 µM (FGFR1; read-out: %Control @1000nM) | difference in %Control versus Ib at 1 µM (KIT(L576P); @1000nM) | remaining binding at 1 µM (KIT(L576P); @1000nM, read-out: %Control) | remaining binding at 1 µM (KIT(L576P); read-out: %Control @1000nM) | difference in %Control from compound Ib at 1 µM (FLT3; @1000nM) | remaining binding at 1 µM (FLT3; @1000nM, read-out: %Control) | remaining binding at 1 µM (FLT3; read-out: %Control @1000nM) | difference in %Control from compound Ib at 1 µM (EPHA5; @1000nM) | remaining binding at 1 µM (EPHA5; @1000nM, read-out: %Control) | remaining binding at 1 µM (EPHA5; read-out: %Control @1000nM) | Structure (SMILES) | %Control @1000nM (FLT3(ITD,F691L)) | % difference (compound - Ib %Control) (FLT3(ITD,F691L)) | %Control (FLT3(ITD,F691L)) |
| --- | --- | --- | --- | --- | --- | --- | --- | --- | --- | --- | --- | --- | --- | --- | --- | --- | --- | --- | --- | --- |
| 5% | 81% | 81% | 72% | 72% | 44% | 77% | 77% | 12% | 44% | 44% | 21% | 54% | 54% | -1% | 95% | 95% | Cc1cnc(S(C)(=O)=O)nc1N1CCCC(n2nc(-c3ccc(Oc4ccccc4)cc3)c3c(N)ncnc32)C1 (stereo not shown) [Compound 8a, 1-(1-(5-Methyl-2-(methylsulfonyl)pyrimidin-4-yl)piperidin-3-yl)-3-(4-phenoxyphenyl)-1H-pyrazolo[3,4-d]pyrimidin-4-amine] | 96% | -4% | 96% |
| 1% | 77% | 77% | 90% | 90% | 16% | 49% | 49% | 24% | 56% | 56% | 47% | 80% | 80% | 4% | 100% | 100% | COC(=O)c1cnc(S(C)(=O)=O)nc1N1CCCC(n2nc(-c3ccc(Oc4ccccc4)cc3)c3c(N)ncnc32)C1 (stereo not shown) [Compound 8b, Methyl 4-(3-(4-Amino-3-(4-phenoxyphenyl)-1H-pyrazolo[3,4-d]pyrimidin-1-yl)piperidin-1-yl)-2-(methylsulfonyl)pyrimidine-5-carboxylate] | 96% | -4% | 96% |
